Laboratory results as given in patent publication US10072017B2, “Compounds and methods for the treatment of cystic fibrosis” (Flatley Discovery Lab, LLC, priority 2015, dated 2018).

Target: T1, CFTR (Homo sapiens, UniProt P13569, DEL508-508)
T1 construct: Primary CF airway epithelial cells were obtained from the UNC Cystic Fibrosis Tissue Procurement and Cell Culture Core; host or cells: primary CF airway epithelial cells
Assay: Equivalent current assay in Primary CF airway epithelial cells (NAUC)
Format: cell-based
Settings: 24 h, normalized to VX809 (3 μM) positive control; for Nauc @ 3 μM: 3 μM test compound; for Nauc @ 10 μM: 10 μM test compound
In short: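 NAUC is the area under the curve from forskolin (10 μM) plus VX770 (1 μM) addition to CFTR-172 (20 μM) block, after benzamil (5 μM). It is corrected for vehicle and scaled to 3 μM VX809 as 1.0 and DMSO as 0.0. Cells were exposed for 24 h to compounds with VX809; medians of ≥4 replicates were fitted sigmoidally.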

T1 sequence (P13569 with tags, fused parts or gaps DEL508-508): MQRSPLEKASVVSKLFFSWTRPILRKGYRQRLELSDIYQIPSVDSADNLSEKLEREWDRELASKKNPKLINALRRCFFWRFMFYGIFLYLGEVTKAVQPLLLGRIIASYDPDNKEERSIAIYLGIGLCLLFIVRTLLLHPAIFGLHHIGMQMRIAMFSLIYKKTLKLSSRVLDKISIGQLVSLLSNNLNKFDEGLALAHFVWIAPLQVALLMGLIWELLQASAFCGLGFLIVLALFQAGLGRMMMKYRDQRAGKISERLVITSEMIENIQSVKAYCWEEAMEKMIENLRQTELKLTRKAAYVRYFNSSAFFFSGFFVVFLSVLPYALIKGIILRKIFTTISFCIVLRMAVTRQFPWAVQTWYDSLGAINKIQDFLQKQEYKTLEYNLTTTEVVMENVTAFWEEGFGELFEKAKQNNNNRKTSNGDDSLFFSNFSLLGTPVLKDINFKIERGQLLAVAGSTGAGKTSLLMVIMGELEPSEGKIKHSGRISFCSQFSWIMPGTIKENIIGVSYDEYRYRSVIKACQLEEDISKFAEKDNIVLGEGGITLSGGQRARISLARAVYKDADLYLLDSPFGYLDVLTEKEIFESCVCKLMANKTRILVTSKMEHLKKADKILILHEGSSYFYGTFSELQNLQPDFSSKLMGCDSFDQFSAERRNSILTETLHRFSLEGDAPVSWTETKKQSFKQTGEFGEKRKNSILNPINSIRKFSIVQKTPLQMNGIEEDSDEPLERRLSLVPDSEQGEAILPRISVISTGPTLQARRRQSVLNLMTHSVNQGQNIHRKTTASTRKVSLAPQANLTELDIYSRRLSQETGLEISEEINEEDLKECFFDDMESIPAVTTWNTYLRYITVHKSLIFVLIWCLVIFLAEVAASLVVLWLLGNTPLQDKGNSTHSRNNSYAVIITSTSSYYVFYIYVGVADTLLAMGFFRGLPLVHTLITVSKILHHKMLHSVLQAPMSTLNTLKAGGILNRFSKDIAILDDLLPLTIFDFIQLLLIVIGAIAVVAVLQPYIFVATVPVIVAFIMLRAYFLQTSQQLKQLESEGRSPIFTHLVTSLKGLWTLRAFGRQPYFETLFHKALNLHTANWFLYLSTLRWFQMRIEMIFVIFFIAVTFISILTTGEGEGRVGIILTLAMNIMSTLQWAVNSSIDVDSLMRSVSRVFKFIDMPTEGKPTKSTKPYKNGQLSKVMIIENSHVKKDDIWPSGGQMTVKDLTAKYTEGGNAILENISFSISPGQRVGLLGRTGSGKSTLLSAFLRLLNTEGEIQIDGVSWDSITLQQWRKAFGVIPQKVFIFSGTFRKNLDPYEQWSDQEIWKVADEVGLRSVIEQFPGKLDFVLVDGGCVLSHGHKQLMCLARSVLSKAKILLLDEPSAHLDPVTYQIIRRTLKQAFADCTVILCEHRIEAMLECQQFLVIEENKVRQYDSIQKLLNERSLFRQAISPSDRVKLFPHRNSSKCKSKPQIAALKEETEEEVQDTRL

| Structure (SMILES) | Nauc @ 3 μM | Nauc @ 10 μM |
| --- | --- | --- |
| CC(C)CC1NC2(C(=O)Nc3c(Cl)cc(Cl)cc32)C2C(=O)N(c3cc(Cl)cc(Cl)c3)C(=O)C12 (centres unmarked) [Example 164] | ++ (NAUC “++” refers to an observed NAUC 170-140% of positive control) | +++ (NAUC “+++” refers to an observed NAUC >170% of positive control) |
| O=C1C2C3C[C@H](Cl)CN3C3(C(=O)Nc4c(Cl)cc(Cl)cc43)C2C(=O)N1c1cc(Cl)cc(Cl)n1 (single isomer, unassigned) [Example 108] | +++ (NAUC “+++” refers to an observed NAUC >170% of positive control) | ++ (NAUC “++” refers to an observed NAUC 170-140% of positive control) |
| C[C@]1(O)CC2C3C(=O)N(c4cccc(F)n4)C(=O)C3C3(C(=O)Nc4c(Cl)cc(Cl)cc43)N2C1 (some centres unmarked) [Example 233] | +++ (NAUC “+++” refers to an observed NAUC >170% of positive control) | ++ (NAUC “++” refers to an observed NAUC 170-140% of positive control) |
| CC(C)C1NC2(C(=O)Nc3c(Cl)cc(Cl)cc32)C2C(=O)N(c3cc(Cl)cc(Cl)c3)C(=O)C12 (centres unmarked) [Example 235] | +++ (NAUC “+++” refers to an observed NAUC >170% of positive control) | +++ (NAUC “+++” refers to an observed NAUC >170% of positive control) |
| N#Cc1cc(Cl)cc(N2C(=O)C3C4CCCN4C4(C(=O)Nc5c(Cl)cc(Cl)cc54)C3C2=O)c1 (centres unmarked) [Example 31] | + (NAUC “+” refers to an observed NAUC <140% of positive control) | +++ (NAUC “+++” refers to an observed NAUC >170% of positive control) |
| CC1(C)CC2C3C(=O)N(c4cc(Cl)cc(Cl)n4)C(=O)C3C3(C(=O)Nc4c(Cl)cc(Cl)cc43)N2C1 (centres unmarked) [Example 129] | ++ (NAUC “++” refers to an observed NAUC 170-140% of positive control) | ++ (NAUC “++” refers to an observed NAUC 170-140% of positive control) |
| O=C1C2C(Cc3cccc(Cl)c3)NC3(C(=O)Nc4c(Cl)cc(Cl)cc43)C2C(=O)N1c1cc(Cl)cc(Cl)c1 (centres unmarked) [Example 187] | +++ (NAUC “+++” refers to an observed NAUC >170% of positive control) | ++ (NAUC “++” refers to an observed NAUC 170-140% of positive control) |
| CC(C)C1NC2(C(=O)Nc3c(Cl)cc(Cl)cc32)C2C(=O)N(c3cc(Cl)cc(Cl)c3)C(=O)C12 (single isomer, unassigned) [Example 242] | +++ (NAUC “+++” refers to an observed NAUC >170% of positive control) | +++ (NAUC “+++” refers to an observed NAUC >170% of positive control) |
| O=C1C2C3CCCN3C3(C(=O)Nc4c(Cl)cc(Cl)cc43)C2C(=O)N1c1cc(Cl)cc(Cl)n1 (single isomer, unassigned) [Example 3, 5,7-Dichloro-2′-(4,6-dichloropyridin-2-yl)-3a′,6′,7′,8′,8a′,8b′-hexahydro-1′H-spiro[indoline-3,4′-pyrrolo[3,4-a]pyrrolizine]-1′,2,3′(2′H)-trione] | +++ (NAUC “+++” refers to an observed NAUC >170% of positive control) | +++ (NAUC “+++” refers to an observed NAUC >170% of positive control) |
| CC12C(=O)N(c3cc(Cl)cc(Cl)c3)C(=O)C1(C)C1(C(=O)Nc3c(Cl)cc(Cl)cc31)N1CCCC12 (centres unmarked) [Example 39] | + (NAUC “+” refers to an observed NAUC <140% of positive control) | ++ (NAUC “++” refers to an observed NAUC 170-140% of positive control) |
| C[C@]1(OCc2ccccc2)CC2C3C(=O)N(c4cc(Cl)cc(Cl)c4)C(=O)C3C3(C(=O)Nc4c(Cl)cc(Cl)cc43)N2C1 (single isomer, unassigned) [Example 241] | +++ (NAUC “+++” refers to an observed NAUC >170% of positive control) | +++ (NAUC “+++” refers to an observed NAUC >170% of positive control) |
| COc1c(Cl)cc(N2C(=O)C3C4C[C@H](F)CN4C4(C(=O)Nc5c(Cl)cc(Cl)cc54)C3C2=O)cc1Cl (some centres unmarked) [Example 78] | +++ (NAUC “+++” refers to an observed NAUC >170% of positive control) | +++ (NAUC “+++” refers to an observed NAUC >170% of positive control) |
| [2H]C([2H])([2H])C1(C([2H])([2H])[2H])CC2C3C(=O)N(c4cc(Cl)c(OC)c(Cl)c4)C(=O)C3C3(C(=O)Nc4c(Cl)cc(Cl)cc43)N2C1 (centres unmarked) [Example 214] | +++ (NAUC “+++” refers to an observed NAUC >170% of positive control) | +++ (NAUC “+++” refers to an observed NAUC >170% of positive control) |
| O=C1C2C3CCCN3C3(C(=O)Nc4c(Cl)cc(Cl)cc43)C2C(=O)N1c1cccc(C(F)(F)F)n1 (centres unmarked) [Example 251] | +++ (NAUC “+++” refers to an observed NAUC >170% of positive control) | +++ (NAUC “+++” refers to an observed NAUC >170% of positive control) |
| COc1cc(Cl)cc(N2C(=O)C3C4CC(=C(F)F)CN4C4(C(=O)Nc5c(Cl)cc(Cl)cc54)C3C2=O)c1 (single isomer, unassigned) [Example 139] | ++ (NAUC “++” refers to an observed NAUC 170-140% of positive control) | + (NAUC “+” refers to an observed NAUC <140% of positive control) |
| O=C1C2C3C[C@H](O)CN3C3(C(=O)Nc4c(Cl)cc(Cl)cc43)C2C(=O)N1c1cc(Cl)cc(Br)c1 (some centres unmarked) [Example 41] | ++ (NAUC “++” refers to an observed NAUC 170-140% of positive control) | +++ (NAUC “+++” refers to an observed NAUC >170% of positive control) |
| O=C1C2C3CC(F)(F)CN3C3(C(=O)Nc4c(Cl)cc(Cl)cc43)C2C(=O)N1c1cc(Cl)cc(Cl)n1 (centres unmarked) [Example 193] | +++ (NAUC “+++” refers to an observed NAUC >170% of positive control) | +++ (NAUC “+++” refers to an observed NAUC >170% of positive control) |
| O=C1C2C3CC(C(F)F)CN3C3(C(=O)Nc4c(Cl)cc(Cl)cc43)C2C(=O)N1c1cc(Cl)nc(Cl)c1 (centres unmarked) [Example 132] | + (NAUC “+” refers to an observed NAUC <140% of positive control) | ++ (NAUC “++” refers to an observed NAUC 170-140% of positive control) |
| O=C1C2C3C[C@H](O)CN3C3(C(=O)Nc4c(Cl)cc(Cl)cc43)C2C(=O)N1c1cc(C(F)(F)F)cc(C(F)(F)F)c1 (single isomer, unassigned) [Example 62] | ++ (NAUC “++” refers to an observed NAUC 170-140% of positive control) | ++ (NAUC “++” refers to an observed NAUC 170-140% of positive control) |
| COc1cc(Cl)cc(N2C(=O)C3C4C[C@](C)(O)CN4C4(C(=O)Nc5c(Cl)cc(Cl)cc54)C3C2=O)c1 (some centres unmarked) [Example 158] | ++ (NAUC “++” refers to an observed NAUC 170-140% of positive control) | +++ (NAUC “+++” refers to an observed NAUC >170% of positive control) |
| O=C1C2C3C[C@H](Cl)CN3C3(C(=O)Nc4c(Cl)cc(Cl)cc43)C2C(=O)N1c1cc(Cl)cc(Cl)c1 (some centres unmarked) [Example 57] | +++ (NAUC “+++” refers to an observed NAUC >170% of positive control) | +++ (NAUC “+++” refers to an observed NAUC >170% of positive control) |
| O=C1C2C3CC4(CC4)CN3C3(C(=O)Nc4c(Cl)cc(Cl)cc43)C2C(=O)N1c1cc(Cl)cc(Cl)c1 (single isomer, unassigned) [Example 191] | +++ (NAUC “+++” refers to an observed NAUC >170% of positive control) | +++ (NAUC “+++” refers to an observed NAUC >170% of positive control) |
| COc1ccccc1CC1NC2(C(=O)Nc3c(Cl)cc(Cl)cc32)C2C(=O)N(c3cc(Cl)cc(Cl)c3)C(=O)C12 (centres unmarked) [Example 201] | + (NAUC “+” refers to an observed NAUC <140% of positive control) | +++ (NAUC “+++” refers to an observed NAUC >170% of positive control) |
| COc1cc(Cl)cc(N2C(=O)C3C4CC(=C(F)F)CN4C4(C(=O)Nc5c(Cl)cc(Cl)cc54)C3C2=O)c1 (single isomer, unassigned) [Example 138] | +++ (NAUC “+++” refers to an observed NAUC >170% of positive control) | + (NAUC “+” refers to an observed NAUC <140% of positive control) |
| CC1CC2C3C(=O)N(c4cc(Cl)cc(Cl)c4)C(=O)C3C3(C(=O)Nc4c(Cl)cc(Cl)cc43)N2C1 (centres unmarked) [Example 63] | +++ (NAUC “+++” refers to an observed NAUC >170% of positive control) | +++ (NAUC “+++” refers to an observed NAUC >170% of positive control) |
| C[C@@]1(F)CC2C3C(=O)N(c4cc(Cl)cc(Cl)n4)C(=O)C3C3(C(=O)Nc4c(Cl)cc(Cl)cc43)N2C1 (single isomer, unassigned) [Example 230] | +++ (NAUC “+++” refers to an observed NAUC >170% of positive control) | +++ (NAUC “+++” refers to an observed NAUC >170% of positive control) |
| O=C1C2C3CC(C(F)(F)F)CN3C3(C(=O)Nc4c(Cl)cc(Cl)cc43)C2C(=O)N1c1cc(Cl)cc(Cl)c1 (centres unmarked) [Example 215] | +++ (NAUC “+++” refers to an observed NAUC >170% of positive control) | ++ (NAUC “++” refers to an observed NAUC 170-140% of positive control) |
| O=C1C2C3C[C@H](Cl)CN3C3(C(=O)Nc4c(Cl)cc(Cl)cc43)C2C(=O)N1c1cc(Cl)c(O)c(Cl)c1 (some centres unmarked) [Example 83] | ++ (NAUC “++” refers to an observed NAUC 170-140% of positive control) | +++ (NAUC “+++” refers to an observed NAUC >170% of positive control) |
